US20250230193A1, “CYCLIC COMPOUND HAVING SELECTIVE KRAS INHIBITORY EFFECT ON HRAS AND NRAS” (CHUGAI SEIYAKU KABUSHIKI KAISHA, priority 2022, published 2025)
Where a SMILES comes first, the peptide text is derived from it. Bridges are numbered along the chain shown (N, C = ends). [ ]: non-standard residue; d: D form. The star is where a group is joined. hPhe(3-Cl-4-CF3) = N[C@@H](CCc1ccc(C(F)(F)F)c(Cl)c1)C(=O)O; NPrPhe(4-CF3) = CCCN[C@@H](Cc1ccc(C(F)(F)F)cc1)C(=O)O; NMeGly(cPent) = CN[C@H](C(=O)O)C1CCCC1; NMeD = CN[C@@H](CC(=O)O)C(=O)O; NMeL = CN[C@@H](CC(C)C)C(=O)O; Oxazolidin(3-yl) = C1CN(*)CO1; NMeA = CN[C@@H](C)C(=O)O; Ac5c = NC1(C(=O)O)CCCC1; Aze = O=C(O)[C@@H]1CCN1; Sar = CNCC(=O)O

Columns and labels:
[1] = biological target: GDP-bound HRAS wild-type protein (Homo sapiens, UniProt P01112); assay: Binding to HRAS by surface plasmon resonance (SPR), Single Cycle Kinetics
[2] = biological target: GDP-bound NRAS wild-type protein (Homo sapiens, UniProt P01111); assay: Binding to NRAS by surface plasmon resonance (SPR), Single Cycle Kinetics
[3] = GDP-bound HRAS wild-type vs GDP-bound KRAS wild-type, SPR
[4] = GDP-bound NRAS wild-type vs GDP-bound KRAS wild-type, SPR
[5] = SPR, GDP-bound wild-type proteins

GDP-bound HRAS wild-type protein, sequence (P01112 whole entry): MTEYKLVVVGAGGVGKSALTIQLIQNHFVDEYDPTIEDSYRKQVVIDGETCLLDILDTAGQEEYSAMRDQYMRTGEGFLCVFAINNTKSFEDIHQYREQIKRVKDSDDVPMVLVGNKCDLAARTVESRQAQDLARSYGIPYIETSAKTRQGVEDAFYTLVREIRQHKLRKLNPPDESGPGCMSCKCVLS
GDP-bound NRAS wild-type protein, sequence (P01111 whole entry): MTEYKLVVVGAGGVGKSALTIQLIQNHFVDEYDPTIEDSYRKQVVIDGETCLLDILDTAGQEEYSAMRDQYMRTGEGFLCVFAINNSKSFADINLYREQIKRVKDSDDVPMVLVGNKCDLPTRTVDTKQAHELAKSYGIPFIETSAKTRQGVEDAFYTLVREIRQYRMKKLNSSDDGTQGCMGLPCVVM

CCC[C@H]1C(=O)N[C@@H]([C@@H](C)CC)C(=O)N(C)CC(=O)N(C)[C@H]2C/C=C\CCN(C2=O)[C@@H](Cc2ccc(C)cc2)C(=O)N(C)CC(=O)N[C@@H](CCc2ccc(C(F)(F)F)c(OC)c2)C(=O)N2C[C@@H](C)C[C@H]2C(=O)NC2(CC(C)(C)C2)C(=O)N(C)[C@@H](C2CCCC2)C(=O)N(C)[C@H](C(=O)N(C)C)CC(=O)N1C [PP1888]
HRAS/KRAS (ratio of KD value for HRAS to KD value for KRAS) [1, 3]: B (a compound having 3 or more and less than 10 is denoted as B)
NRAS/KRAS (ratio of KD value for NRAS to KD value for KRAS) [2, 4]: A (a compound having 10 or more and less than 20 is denoted as A)

CCC[C@H]1C(=O)N[C@@H]([C@@H](C)CC)C(=O)N(C)CC(=O)N(C)[C@H]2C/C=C\CCN(C2=O)[C@@H](Cc2ccc(C)cc2)C(=O)N(C)CC(=O)N[C@@H](CCc2ccc3c(C)c(C)n(C)c3c2)C(=O)N2C[C@H](OCC)C[C@H]2C(=O)NC2(CC(C)(C)C2)C(=O)N(C)[C@@H](C(CC)CC)C(=O)N(C)[C@H](C(=O)N(C)C)CC(=O)N1C [PP2906]
HRAS/KRAS (ratio of KD value with respect to GDP-bound HRAS wild-type protein to KD value with respect to KRAS) ([1]; class symbols): A (a compound having 10 or more and less than 20 is denoted as A)
NRAS/KRAS (ratio of KD value with respect to GDP-bound NRAS wild-type protein to KD value with respect to KRAS) ([2]; class symbols): A (a compound having 10 or more and less than 20 is denoted as A)

CCC[C@H]1C(=O)N[C@@H]([C@@H](C)CC)C(=O)N(C)CC(=O)N(C)[C@H]2C/C=C\CCN(C2=O)[C@@H](CC2CCCCC2)C(=O)N(C)CC(=O)N[C@@H](CCc2ccc(C(F)(F)F)c(OC)c2)C(=O)N2C[C@H](OCC)C[C@H]2C(=O)N(C)C2(CCC2)C(=O)N(C)[C@@H](C(CC)CC)C(=O)N(C)[C@H](C(=O)N(C)C)CC(=O)N1C [PP2333]
HRAS/KRAS (ratio of KD value with respect to HRAS to KD value with respect to KRAS) ([1]; SPR, GDP-bound HRAS wild-type vs GDP-bound KRAS wild-type): A (a compound having 10 or more and less than 20 is denoted as A)
NRAS/KRAS (ratio of KD value with respect to NRAS to KD value with respect to KRAS) ([2]; SPR, GDP-bound NRAS wild-type vs GDP-bound KRAS wild-type): A (a compound having 10 or more and less than 20 is denoted as A)

CCC[C@H]1C(=O)N[C@@H](C2CCCC2)C(=O)N(C)CC(=O)N(C)[C@H]2C/C=C\CCN(C2=O)[C@@H](Cc2ccc(C)cc2)C(=O)N(C)CC(=O)N[C@@H](CCc2cc(F)c(C(F)(F)F)c(F)c2)C(=O)N2C[C@H](OCC)C[C@H]2C(=O)NC2(CC(C)(C)C2)C(=O)N(C)[C@@H](CC(C)(C)C)C(=O)N(C)[C@H](C(=O)N(C)C)CC(=O)N1C [PP2989]
HRAS/KRAS (ratio of KD value with respect to GDP-bound HRAS wild-type protein to KD value with respect to KRAS) [1, 5]: A (a compound having 10 or more and less than 20 is denoted as A)
NRAS/KRAS (ratio of KD value with respect to GDP-bound NRAS wild-type protein to KD value with respect to KRAS) [2, 5]: AA (a compound having 20 or more is denoted as AA)

CCO[C@@H]1C[C@H]2C(=O)NC3(CCC3)C(=O)N(C)[C@@H](C3CCCC3)C(=O)N(C)[C@H](C(=O)N(C)CC)CC(=O)N(C)[C@@H](C3CCC3)C(=O)N[C@@H]([C@@H](C)CC)C(=O)N(C)CC(=O)N(C)[C@H]3C/C=C\CCN(C3=O)[C@@H](Cc3ccc(C(F)(F)F)cc3)C(=O)N(C)CC(=O)N[C@@H](CCc3cc(F)c(C(F)(F)F)c(F)c3)C(=O)N2C1 [PP1996]
HRAS/KRAS (ratio of KD value for HRAS to KD value for KRAS) [1, 3]: B (a compound having 3 or more and less than 10 is denoted as B)
NRAS/KRAS (ratio of KD value for NRAS to KD value for KRAS) [2, 4]: A (a compound having 10 or more and less than 20 is denoted as A)

CCCN1C(=O)[C@@H]2CCN2C(=O)[C@H](C)N(C)C(=O)[C@H]([C@@H](C)CC)NC(=O)[C@H](CC(C)C)N(C)C(=O)C[C@@H](C(=O)N2CCOC2)N(C)C(=O)[C@H](C2CCCC2)N(C)C(=O)C2(CCCC2)NC(=O)[C@@H]2CCCN2C(=O)[C@H](CCc2ccc(C(F)(F)F)c(Cl)c2)NC(=O)CN(C)C(=O)[C@@H]1Cc1ccc(C(F)(F)F)cc1 [PP0183] ([NMeL]I[NMeA][Aze][NPrPhe(4-CF3)][Sar][hPhe(3-Cl-4-CF3)]P[Ac5c][NMeGly(cPent)][NMeD]-{Oxazolidin(3-yl)}; lactam N-11)
HRAS/KRAS (ratio of KD for GDP-bound HRAS wild-type to KD for KRAS) ([1]; SPR): B (a compound having 3 or more and less than 10 is denoted as B)
NRAS/KRAS (ratio of KD for GDP-bound NRAS wild-type to KD for KRAS) ([2]; SPR): C (A compound having a KD ratio of 0.1 or more and less than 3 is denoted as C)

CCCN1C(=O)[C@@H]2CCN2C(=O)[C@H](C)N(C)C(=O)[C@H]([C@@H](C)CC)NC(=O)[C@H](CC(C)C)N(C)C(=O)C[C@@H](C(=O)N(C)C)N(C)C(=O)[C@H](C2CCCC2)N(C)C(=O)C2(CCCC2)NC(=O)[C@@H]2CCCN2C(=O)[C@H](CCc2ccc(C(F)(F)F)c(Cl)c2)NC(=O)CN(C)C(=O)[C@@H]1Cc1ccc(C(F)(F)F)cc1 [PP0178] ([NMeL]I[NMeA][Aze][NPrPhe(4-CF3)][Sar][hPhe(3-Cl-4-CF3)]P[Ac5c][NMeGly(cPent)][NMeD]-NMe2; lactam N-11)
HRAS/KRAS (ratio of KD for GDP-bound HRAS wild-type to KD for KRAS) ([1]; SPR): B (a compound having 3 or more and less than 10 is denoted as B)
NRAS/KRAS (ratio of KD for GDP-bound NRAS wild-type to KD for KRAS) ([2]; SPR): C (A compound having a KD ratio of 0.1 or more and less than 3 is denoted as C)
